According to patent US10195156B2, “Compounds and compositions for intracellular delivery of agents” (ModernaTX, Inc., priority 2015, dated 2019):

What was measured:
LDL-c = experiment: LDL levels in LDLr−/− mice after mRNA encoding the LDL receptor; type: in vivo, LDLR knockout mice; details: Mus musculus; Table 7b; LDLr−/− mice, 0.5 mpk, LDLr; read-out: LDL levels lipid/untreated LDLr−/− mice 0.5 mpk, LDLr
[1] = tested on: modified luciferase (Luc) expression; experiment: Expression upon intramuscular administration of Luc mRNA and H10 mRNA formulations; type: in vivo; details: 6 hours after intramuscular administration
Procedure: Sample formulations including both modified luciferase (Luc) mRNA and H10 mRNA were prepared and administered intramuscularly at day 1 and day 21 and the resulting expression and immunogenicity were evaluated simultaneously. Formulations including compounds according to formula (20-I) were prepared and administered at doses of 0.001 and 0.01 mpk (e.g., doses of 0.0005 mpk of a formulation including Luc mRNA and a formulation including H10 mRNA or doses of 0.005 mpk of a formulation including Luc mRNA and a formulation including H10 mRNA). As shown in Table 20-4, the total flux was higher upon administration of the second dose for each composition and at each dose level. Total flux was higher for the higher dose level.

CCCCCC=CCC=CCCCCCCCCC(CCCCCCCCC=CCC=CCCCCC)OC(=O)CCCN(C)C (centres unmarked) [MC3, heptatriaconta-6,9,28,31-tetraen-19-yl 4-(dimethylamino)butanoate, reference compound]
response vs control in vivo at 0.5 mg/kg (LDL-c): 55% | Total flux (p/s) 0.001 mpk Dose 1 ([1]; 0.001 mpk, Dose 1): 1.23E+06 p/s | Total flux (p/s) 0.001 mpk Dose 2 ([1]; 0.001 mpk, Dose 2): 1.09E+06 p/s | Total flux (p/s) 0.01 mpk Dose 1 ([1]; 0.01 mpk, Dose 1): 1.79E+07 p/s | Total flux (p/s) 0.01 mpk Dose 2 ([1]; 0.01 mpk, Dose 2): 3.13E+07 p/s
